Where “and” joins values, the source holds several entries; their conditions need not be identical. Equal values may be shown once. Toxic doses and inconclusive results are not listed. Rule for the calls: active = survival T/C of 150% or more; inactive = T/C below 125% in these data.
Tested on: P388 leukemia ip, CD2F1 mice, survival T/C
Assay: NCI In Vivo Anticancer Drug Screen. Data for tumor model P388 Leukemia (intraperitoneal) in CD2F1 (CDF1) mice
Conditions: endpoint: median survival time, higher = longer survival
In short: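 Mice carrying the transplanted tumor received test compound or vehicle. Survival was recorded in each group, and the value is the treated-group measurement divided by that of the vehicle-treated control group.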

Measured: T/C

N[C@@H](Cc1ccc(N(CCCl)CCCl)cc1)C(=O)O
inactive: dose: 0.25 mg/kg/injection, schedule: Q01DX009 (ip), vehicle: suspension in saline 117 % of control | dose: 0.5 mg/kg/injection, schedule: Q01DX009 (ip), vehicle: suspension in saline 123 % of control | dose: 1.25 mg/kg/injection, schedule: Q04DX003 (iv), vehicle: saline 124 % of control | dose: 1.5 mg/kg/injection, schedule: Q01DX009 (ip), vehicle: Klucel (hydroxypropylcellulose) (HPC) 101 % of control | dose: 3.0 mg/kg/injection, schedule: Q04DX003 (ip), vehicle: Klucel (hydroxypropylcellulose) (HPC) 119 % of control | dose: 6.0 mg/kg/injection, schedule: Q04DX003 (ip), vehicle: Klucel (hydroxypropylcellulose) (HPC) 117 % of control | dose: 8.0 mg/kg/injection, schedule: Q01DX009 (ip), vehicle: Klucel (hydroxypropylcellulose) (HPC) 109 % of control | dose: 8.0 mg/kg/injection, schedule: Q01DX009 (ip), vehicle: saline 99 % of control and 100 % of control | dose: 8.0 mg/kg/injection, schedule: Q01DX009 (ip), vehicle: suspension in saline 104 % of control and 108 % of control | dose: 10.0 mg/kg/injection, schedule: Q04DX003 (iv), vehicle: saline 100 % of control | dose: 15.0 mg/kg/injection, schedule: Q04DX002 (ip), vehicle: saline 101 % of control and 109 % of control | dose: 15.0 mg/kg/injection, schedule: Q04DX003 (ip), vehicle: saline 108 % of control | dose: 16.0 mg/kg/injection, schedule: Q04DX003 (ip), vehicle: water 115 % of control | dose: 18.9 mg/kg/injection, schedule: Q04DX003 (ip), vehicle: saline 107 % of control | dose: 24.0 mg/kg/injection, schedule: Q04DX003 (ip), vehicle: saline 107 % of control
active: dose: 0.25 mg/kg/injection, schedule: Q01DX009 (ip), vehicle: saline 152 % of control | dose: 0.25 mg/kg/injection, schedule: Q03HX008 (ip), vehicle: saline 165 % of control | dose: 0.38 mg/kg/injection, schedule: Q01DX005 (ip), vehicle: saline 154 % of control | dose: 0.5 mg/kg/injection, schedule: Q01DX005 (ip), vehicle: saline 153 % of control and 189 % of control | dose: 0.5 mg/kg/injection, schedule: Q01DX009 (ip), vehicle: saline 163 % of control and 170 % of control | dose: 0.5 mg/kg/injection, schedule: Q03HX008 (ip), vehicle: saline 190 % of control | dose: 0.5 mg/kg/injection, schedule: Q04DX003 (ip), vehicle: water 150 % of control | dose: 0.54 mg/kg/injection, schedule: Q01DX009 (ip), vehicle: saline 175 % of control | dose: 0.75 mg/kg/injection, schedule: Q01DX005 (ip), vehicle: saline 172 % of control | dose: 0.75 mg/kg/injection, schedule: Q04DX003 (ip), vehicle: saline 150 % of control | dose: 0.9 mg/kg/injection, schedule: Q01DX009 (ip), vehicle: saline 193 % of control | dose: 1.0 mg/kg/injection, schedule: Q01DX005 (ip), vehicle: water 167 % of control | dose: 1.0 mg/kg/injection, schedule: Q01DX009 (ip), vehicle: Klucel (hydroxypropylcellulose) (HPC) 222 % of control | dose: 1.0 mg/kg/injection, schedule: Q01DX009 (ip), vehicle: saline 193 % of control and 209 % of control and 227 % of control | dose: 1.0 mg/kg/injection, schedule: Q01DX009 (ip), vehicle: suspension in saline 163 % of control | dose: 1.0 mg/kg/injection, schedule: Q04DX003 (ip), vehicle: saline 176 % of control | dose: 1.0 mg/kg/injection, schedule: Q04DX003 (ip), vehicle: water 162 % of control | dose: 1.25 mg/kg/injection, schedule: Q04DX003 (ip), vehicle: saline 176 % of control | dose: 1.25 mg/kg/injection, schedule: Q04DX003 (ip), vehicle: water 158 % of control and 200 % of control | dose: 1.5 mg/kg/injection, schedule: Q01DX005 (ip), vehicle: saline 203 % of control | dose: 1.5 mg/kg/injection, schedule: Q01DX009 (ip), vehicle: saline 227 % of control | dose: 1.5 mg/kg/injection, schedule: Q04DX003 (ip), vehicle: Klucel (hydroxypropylcellulose) (HPC) 225 % of control | dose: 1.5 mg/kg/injection, schedule: Q04DX003 (ip), vehicle: saline 174 % of control | dose: 1.62 mg/kg/injection, schedule: Q04DX003 (ip), vehicle: saline 180 % of control | dose: 1.62 mg/kg/injection, schedule: Q04DX003 (ip), vehicle: water 191 % of control | dose: 1.7 mg/kg/injection, schedule: Q04DX003 (ip), vehicle: saline 174 % of control | dose: 1.94 mg/kg/injection, schedule: Q04DX002 (ip), vehicle: saline 190 % of control and 192 % of control and 206 % of control | dose: 1.94 mg/kg/injection, schedule: Q04DX003 (ip), vehicle: saline 186 % of control | dose: 2.0 mg/kg/injection, schedule: Q01DX009 (ip), vehicle: saline 236 % of control and 254 % of control | dose: 2.0 mg/kg/injection, schedule: Q01DX009 (ip), vehicle: suspension in saline 174 % of control and 221 % of control | dose: 2.0 mg/kg/injection, schedule: Q04DX003 (ip), vehicle: saline 196 % of control and 199 % of control and 200 % of control | dose: 2.0 mg/kg/injection, schedule: Q04DX003 (ip), vehicle: water 189 % of control | dose: 2.2 mg/kg/injection, schedule: Q01DX005 (ip), vehicle: saline 165 % of control and 203 % of control | dose: 2.5 mg/kg/injection, schedule: Q01DX001 (ip), vehicle: Klucel (hydroxypropylcellulose) (HPC) 207 % of control | dose: 2.7 mg/kg/injection, schedule: Q04DX003 (ip), vehicle: saline 194 % of control and 250 % of control | dose: 2.7 mg/kg/injection, schedule: Q04DX003 (ip), vehicle: water 233 % of control | dose: 3.0 mg/kg/injection, schedule: Q04DX003 (ip), vehicle: saline 196 % of control | dose: 3.24 mg/kg/injection, schedule: Q04DX002 (ip), vehicle: saline 202 % of control and 213 % of control and 243 % of control | dose: 3.24 mg/kg/injection, schedule: Q04DX003 (ip), vehicle: saline 220 % of control and 227 % of control | dose: 3.6 mg/kg/injection, schedule: Q01DX005 (ip), vehicle: saline 165 % of control and 233 % of control | dose: 3.7 mg/kg/injection, schedule: Q04DX003 (ip), vehicle: saline 220 % of control | dose: 3.75 mg/kg/injection, schedule: Q04DX003 (ip), vehicle: distilled water + Tween-80 215 % of control | dose: 4.0 mg/kg/injection, schedule: Q01DX001 (ip), vehicle: suspension in saline 183 % of control | dose: 4.0 mg/kg/injection, schedule: Q01DX009 (ip), vehicle: Klucel (hydroxypropylcellulose) (HPC) 161 % of control | dose: 4.0 mg/kg/injection, schedule: Q01DX009 (ip), vehicle: saline 166 % of control | dose: 4.0 mg/kg/injection, schedule: Q01DX009 (ip), vehicle: suspension in saline 169 % of control and 238 % of control | dose: 4.0 mg/kg/injection, schedule: Q04DX003 (ip), vehicle: saline 199 % of control and 211 % of control and 240 % of control | dose: 4.0 mg/kg/injection, schedule: Q04DX003 (ip), vehicle: water 225 % of control | dose: 4.5 mg/kg/injection, schedule: Q04DX003 (ip), vehicle: saline 240 % of control | dose: 5.0 mg/kg/injection, schedule: Q01DX001 (ip), vehicle: saline 208 % of control | dose: 5.0 mg/kg/injection, schedule: Q04DX003 (iv), vehicle: saline 194 % of control | dose: 5.4 mg/kg/injection, schedule: Q04DX002 (ip), vehicle: saline 254 % of control | dose: 6.0 mg/kg/injection, schedule: Q01DX005 (ip), vehicle: saline 226 % of control | dose: 6.0 mg/kg/injection, schedule: Q04DX003 (ip), vehicle: saline 218 % of control | dose: 6.7 mg/kg/injection, schedule: Q01DX001 (ip), vehicle: saline 185 % of control | dose: 7.3 mg/kg/injection, schedule: Q04DX003 (ip), vehicle: saline 239 % of control | dose: 10.0 mg/kg/injection, schedule: Q01DX001 (iv), vehicle: saline 185 % of control | dose: 12.5 mg/kg/injection, schedule: Q04DX003 (ip), vehicle: saline 152 % of control | dose: 12.6 mg/kg/injection, schedule: Q04DX003 (ip), vehicle: saline 239 % of control | dose: 17.5 mg/kg/injection, schedule: Q01DX001 (ip), vehicle: saline 243 % of control

CCOC(=O)NC(=O)NC(=O)OCC
inactive: dose: 100.0 mg/kg/injection, schedule: Q04DX003 (ip), vehicle: saline sonified 100 % of control | dose: 200.0 mg/kg/injection, schedule: Q04DX003 (ip), vehicle: saline sonified 100 % of control | dose: 400.0 mg/kg/injection, schedule: Q04DX003 (ip), vehicle: saline sonified 100 % of control

COC(=O)c1nnn(Cc2ccccc2)c1Cl
inactive: dose: 50.0 mg/kg/injection, schedule: Q01DX005 (ip), vehicle: Klucel (hydroxypropylcellulose) (HPC) 98 % of control | dose: 100.0 mg/kg/injection, schedule: Q01DX005 (ip), vehicle: Klucel (hydroxypropylcellulose) (HPC) 103 % of control and 104 % of control | dose: 200.0 mg/kg/injection, schedule: Q01DX005 (ip), vehicle: Klucel (hydroxypropylcellulose) (HPC) 102 % of control and 105 % of control
